PubChem BioAssay (NCI)
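Each compound was tested at five concentrations against cells in 96-well plates for 48 hours. The concentration for 50% growth inhibition is given as GI50. TGI denotes the concentration required for complete inhibition of growth.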

Key:
Assay in all cases: growth of human tumour cells (NCI), 48 h
[1] = system: OVCAR-5 ovarian
[2] = system: SN12C renal
[3] = system: MALME-3M melanoma
[4] = system: NCI-H522 lung
[5] = system: NCI-H226 lung
[6] = system: A549 NSCLC
[7] = system: OVCAR-8 ovarian
[8] = system: LOX IMVI melanoma
[9] = system: IGROV1 ovarian
[10] = system: RXF 393 renal

| Structure (SMILES) | GI50 [1] [µM] | TGI [1] [µM] | GI50 [2] [µM] | TGI [2] [µM] | GI50 [3] [µM] | TGI [3] [µM] | GI50 [4] [µM] | TGI [4] [µM] | GI50 [5] [µM] | TGI [5] [µM] | GI50 [6] [µM] | TGI [6] [µM] | GI50 [7] [µM] | TGI [7] [µM] | GI50 [8] [µM] | TGI [8] [µM] | GI50 [9] [µM] | TGI [9] [µM] | GI50 [10] [µM] | TGI [10] [µM] |
| --- | --- | --- | --- | --- | --- | --- | --- | --- | --- | --- | --- | --- | --- | --- | --- | --- | --- | --- | --- | --- |
| CCC1OC(/C(C)=C/C(C)/C=C/C2C(C)C2/C=C/C2OC(CC(=O)O)CC(O)C2O)CC=C1C (stereo not given) | > 50 | > 50 | > 50 | > 50 | 1.99 | > 50 | > 50 | > 50 | > 50 | > 50 | > 50 | > 50 | > 50 | > 50 | > 50 | > 50 | > 50 | > 50 | > 50 | > 50 |
| Cc1cc(S(=O)(=O)Nc2nc3cc(-c4ccsc4)sc3c(=O)n2N)c(S)cc1Cl | > 100 | > 100 | > 100 | > 100 | > 100 | > 100 | > 100 | > 100 | 49.7 | > 100 | 47.4 | > 100 | 68.1 | > 100 | 60.7 | > 100 | > 100 | > 100 | > 100 | > 100 |
| C#CCOc1cccc(Nc2ncc3ncn(C4CCN(C(=O)CCl)C4)c3n2)c1 (stereo not given) | > 62.5 | > 62.5 | 29.1 | > 62.5 | 8.78 | 56.2 | 7.08 | 18.1 | > 62.5 | > 62.5 | > 62.5 | > 62.5 | > 62.5 | > 62.5 | 13.2 | > 62.5 | 6.79 | > 62.5 | > 62.5 | > 62.5 |
| Cc1cc(O)c2c(c1)C(=O)C(c1c(C)cc3c(c1O)C(=O)C1OC1C3=O)=CC2=O (stereo not given) | – | 13 | – | 11.2 | – | 3.96 | – | 1.4 | – | 32.8 | – | 43.1 | – | 18.2 | – | 5.87 | – | 23.9 | – | 3.11 |
| COC(=O)c1nn(C(=N)c2ccc(Cl)cc2)c2c1CCCCC2 | – | > 100 | – | > 100 | – | > 100 | – | > 100 | – | > 100 | – | > 100 | – | – | – | > 100 | – | > 100 | – | > 100 |
| CCC(=O)OC1=CN2C(=NC(c3ccc(N)cc3)=CC2c2cc(OC)c(OC)c(OC)c2)S1 (stereo not given) | 4.04 | 17.1 | 4.34 | 22.2 | 4 | 16.3 | 3.49 | 12.6 | 7.47 | > 100 | 3.22 | 26 | 3.39 | 22.3 | 3.45 | 13 | 2.31 | 6.63 | 2.3 | 7.98 |
| O=c1cccccc1NCCNc1cccccc1=O | – | > 100 | – | 27.9 | – | 47.9 | – | > 100 | – | > 100 | – | > 100 | – | > 100 | – | > 100 | – | > 100 | – | > 100 |
| O=C(Nc1cccc([N+](=O)[O-])c1)c1cc2ccccc2cc1O | 2.55 | 10.3 | 1.17 | 7.78 | 0.376 | 2.26 | 0.384 | 2.66 | 1.87 | 7.43 | 2.84 | > 100 | 3.31 | 26.1 | 1.87 | 7.69 | 1.3 | > 26.1 | 2.57 | 9.05 |
| CNC(C)Cc1ccc(O)cc1 (stereo not given) | – | > 100 | – | > 100 | – | > 100 | – | > 100 | – | > 100 | – | > 100 | – | > 100 | – | > 100 | – | > 100 | – | > 100 |
| N[C@H](C(=O)O)[C@@H](Cl)CC(=O)O | – | > 100 | – | > 100 | – | > 100 | – | > 100 | – | > 100 | – | > 100 | – | > 100 | – | > 100 | – | > 100 | – | > 100 |
| C(#Cc1ccccc1C#Cc1ccccn1)c1ccccn1 | 17.2 | 40.5 | 18.1 | 35.1 | 7.74 | 21 | 16.3 | 36.3 | 16.6 | 37.9 | 20.5 | 44.3 | 17.8 | 40.1 | 15.4 | 30.9 | – | – | 7.71 | 24.4 |
| COc1cc(CNC(=O)CCSc2nc3ccccc3c(=O)n2Cc2cc(OC)c(OC)c(OC)c2)cc(OC)c1OC | 9.38 | > 100 | 8.1 | > 100 | – | – | 6.55 | 27.5 | 14.6 | > 100 | 6.33 | > 100 | 10 | 50.7 | 7.05 | > 100 | 13.2 | > 100 | 5.31 | 26 |
| CC(C)N(Cc1ccccc1)S(=O)(=O)c1n[nH]c(C(C)(C)C)n1 | – | > 100 | – | > 100 | – | > 100 | – | > 100 | – | > 100 | – | > 100 | – | > 100 | – | > 100 | – | > 100 | – | > 100 |
| CN(C)c1ccc(N=C(C#N)c2nc(N)nc(N3CCN(c4ccccc4)CC3)n2)cc1 | > 50 | > 50 | > 50 | > 50 | 0.0338 | 1.16 | > 50 | > 50 | 22.3 | > 50 | 15.3 | > 34.2 | 18 | > 37.2 | 19.6 | > 45.1 | 14.8 | > 50 | 22.1 | 39.1 |
| COc1cc(N=Nc2cccc(S(N)(=O)=O)c2)c2ccccc2c1N | – | 33.3 | – | 26.1 | – | 3.13 | – | 30.6 | – | 39.7 | – | 33 | – | 56 | – | 18.1 | – | 28.4 | – | 33.6 |
